According to ChEMBL document CHEMBL4118148, “Design, synthesis and cardiovascular evaluation of some aminoisopropanoloxy derivatives of xanthone” (Bioorg Med Chem, 2018):
Calls of active or inactive are those of the source. No cut-off for these calls is given here.

Columns and labels:
[1] = molecular target: Adrenergic receptor alpha-2 (Rattus norvegicus) (UniProt P22086+P19328+P22909); experiment: Displacement of [3H]-clonidine from adrenergic alpha2 receptor in Wistar rat cortex at 10^-5 M incubated for 25 mins by microbeta liquid scintillation counting analysis
[2] = molecular target: Beta-1 adrenergic receptor (Rattus norvegicus, UniProt P18090); experiment: Displacement of [3H]-CGP-12177 from adrenergic beta1 receptor in Wistar rat cortex incubated for 60 mins by microbeta liquid scintillation counting analysis
Chain of Beta-1 adrenergic receptor (P18090 whole entry): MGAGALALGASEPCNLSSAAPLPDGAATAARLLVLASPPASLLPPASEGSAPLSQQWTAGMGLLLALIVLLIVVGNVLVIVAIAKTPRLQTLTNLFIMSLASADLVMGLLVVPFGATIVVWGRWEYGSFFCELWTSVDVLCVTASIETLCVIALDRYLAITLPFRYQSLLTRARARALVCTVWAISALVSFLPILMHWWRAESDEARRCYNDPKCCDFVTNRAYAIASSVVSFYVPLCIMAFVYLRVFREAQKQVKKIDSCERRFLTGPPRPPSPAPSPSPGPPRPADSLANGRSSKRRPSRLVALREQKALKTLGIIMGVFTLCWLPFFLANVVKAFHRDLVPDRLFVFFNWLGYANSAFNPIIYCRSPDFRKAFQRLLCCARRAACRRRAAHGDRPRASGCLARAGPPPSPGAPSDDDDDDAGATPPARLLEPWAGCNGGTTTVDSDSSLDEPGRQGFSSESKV

[3] = molecular target: T1, Adrenergic receptor alpha-1 (Rattus norvegicus) (UniProt P15823+P23944+P43140); experiment: Antagonist activity at adrenergic alpha1 receptor in isolated Wistar rat aorta assessed as inhibition of […] contraction incubated for 20 mins
[4] = molecular target: Beta-2 adrenergic receptor (Cavia porcellus, UniProt Q8K4Z4); experiment: Antagonist activity at adrenergic beta2 receptor in isolated guinea pig trachea assessed as inhibition of isoprenaline-induced bronchodilation incubated for 20 mins; type: functional; conditions: read-out: pA2 (converted)
Chain of Beta-2 adrenergic receptor (Q8K4Z4 whole entry): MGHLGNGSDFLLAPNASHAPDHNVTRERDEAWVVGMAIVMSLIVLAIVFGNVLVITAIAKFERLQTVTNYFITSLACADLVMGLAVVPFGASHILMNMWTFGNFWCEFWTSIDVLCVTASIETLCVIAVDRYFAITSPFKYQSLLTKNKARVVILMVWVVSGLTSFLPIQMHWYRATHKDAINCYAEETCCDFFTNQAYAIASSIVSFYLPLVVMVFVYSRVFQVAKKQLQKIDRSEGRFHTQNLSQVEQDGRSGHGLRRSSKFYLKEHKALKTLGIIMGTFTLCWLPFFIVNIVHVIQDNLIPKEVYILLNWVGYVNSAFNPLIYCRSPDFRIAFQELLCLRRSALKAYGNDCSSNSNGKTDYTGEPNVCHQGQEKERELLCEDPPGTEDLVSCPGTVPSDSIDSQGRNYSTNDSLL

Rattus norvegicus [5] = experiment: In vivo inhibition of beta adrenoceptor in Wistar rat assessed as reduction in isoprenaline-induced tachycardia at 5 mg/kg, iv administered as single dose 10 mins prior to isoprenaline injection; type: functional, organism-based
Rattus norvegicus [6] = experiment: Hypotensive activity in normotensive Wistar rat assessed as reduction in systolic blood pressure at 1 mg/kg, iv measured over 30 mins relative to control; type: functional; design: scale not given: the % may be the effect or the level left
Rattus norvegicus [7] = experiment: Hypotensive activity in normotensive Wistar rat assessed as systolic blood pressure at 5 mg/kg, iv measured after 5 mins (reference value: 119.2 to 148.6 mmHg); type: functional
Rattus norvegicus [8] = experiment: Hypotensive activity in normotensive Wistar rat assessed as diastolic blood pressure at 5 mg/kg, iv measured after 5 mins (reference value: 86.5 to 119.4 mmHg); type: functional
Rattus norvegicus [9] = experiment: Hypotensive activity in normotensive Wistar rat assessed as diastolic blood pressure at 1 mg/kg, iv measured after 5 mins (reference value: 88.4 to 122.7 mmHg); type: functional
Rattus norvegicus [10] = experiment: Hypotensive activity in normotensive Wistar rat assessed as systolic blood pressure at 1 mg/kg, iv measured after 5 mins (reference value: 122.4 to 156.5 mmHg); type: functional
Rattus norvegicus [11] = experiment: Hypotensive activity in normotensive Wistar rat assessed as systolic blood pressure at 1 mg/kg, iv measured after 10 mins (reference value: 122.4 to 156.5 mmHg); type: functional
Rattus norvegicus [12] = experiment: Hypotensive activity in normotensive Wistar rat assessed as diastolic blood pressure at 1 mg/kg, iv measured after 10 mins (reference value: 88.4 to 122.7 mmHg); type: functional
Rattus norvegicus [13] = experiment: Hypotensive activity in normotensive Wistar rat assessed as systolic blood pressure at 1 mg/kg, iv measured after 20 mins (reference value: 122.4 to 156.5 mmHg); type: functional
Rattus norvegicus [14] = experiment: Hypotensive activity in normotensive Wistar rat assessed as diastolic blood pressure at 1 mg/kg, iv measured after 20 mins (reference value: 88.4 to 122.7 mmHg); type: functional
Rattus norvegicus [15] = experiment: Hypotensive activity in normotensive Wistar rat assessed as diastolic blood pressure at 5 mg/kg, iv measured after 30 mins (reference value: 86.5 to 119.4 mmHg); type: functional
Rattus norvegicus [16] = experiment: Hypotensive activity in normotensive Wistar rat assessed as systolic blood pressure at 1 mg/kg, iv measured after 30 mins (reference value: 122.4 to 156.5 mmHg); type: functional
Rattus norvegicus [17] = experiment: Hypotensive activity in normotensive Wistar rat assessed as diastolic blood pressure at 1 mg/kg, iv measured after 30 mins (reference value: 88.4 to 122.7 mmHg); type: functional
Rattus norvegicus [18] = experiment: Hypotensive activity in normotensive Wistar rat assessed as systolic blood pressure at 1 mg/kg, iv measured after 60 mins (reference value: 122.4 to 156.5 mmHg); type: functional
Rattus norvegicus [19] = experiment: Hypotensive activity in normotensive Wistar rat assessed as diastolic blood pressure at 1 mg/kg, iv measured after 60 mins (reference value: 88.4 to 122.7 mmHg); type: functional
Rattus norvegicus [20] = experiment: Cardiotoxicity in Wistar rat assessed as effect on PQ interval time at 5 mg/kg, iv measured after 1 min (reference value: 52 to 57 ms); type: toxicity, organism-based; conditions: in vivo
Rattus norvegicus [21] = experiment: Cardiotoxicity in Wistar rat assessed as effect on PQ interval time at 5 mg/kg, iv measured after 5 mins (reference value: 52 to 57 ms); type: toxicity, organism-based; conditions: in vivo
Rattus norvegicus [22] = experiment: Cardiotoxicity in Wistar rat assessed as effect on PQ interval time at 5 mg/kg, iv measured after 15 mins (reference value: 52 to 57 ms); type: toxicity, organism-based; conditions: in vivo, 0.25 h
Rattus norvegicus [23] = experiment: Cardiotoxicity in Wistar rat assessed as effect on QRS interval time at 5 mg/kg, iv measured after 15 mins (reference value: 16.7 to 20.7 ms); type: toxicity, organism-based; conditions: in vivo, 0.25 h
Rattus norvegicus [24] = experiment: Antiarrhythmic activity in Wistar rat assessed as inhibition of adrenaline-induced premature ventricular extrasystoles administered iv 15 mins prior to adrenaline challenge; type: functional
Blood [25] = experiment: Anti-aggregative activity in Wistar rat whole blood assessed as inhibition of collagen-induced aggregation preincubated for 3 mins followed by collagen induction measured for 6 mins; type: functional, tissue-based
Blood [26] = experiment: Anti-aggregative activity in Wistar rat whole blood assessed as inhibition of collagen/adrenaline-induced aggregation preincubated for 3 mins followed by collagen induction measured for 6 mins; type: functional, tissue-based
[27] = molecular target: T1, Adrenergic receptor alpha-1 (Rattus norvegicus); experiment: Displacement of [3H][…]prazosin from adrenergic alpha1 receptor in Wistar rat cortex at 10^-5 M incubated for 30 mins by microbeta liquid scintillation counting analysis
Rattus norvegicus [28] = experiment: Cardiotoxicity in Wistar rat assessed as effect on heart rate at 1 mg/kg, iv measured after 1 min (reference value: 320.6 +/- 8.1 bpm); type: toxicity, organism-based; conditions: in vivo
Rattus norvegicus [29] = experiment: Cardiotoxicity in Wistar rat assessed as effect on QRS interval time at 1 mg/kg, iv measured after 1 min (reference value: 19.4 +/- 0.9 ms); type: toxicity, organism-based; conditions: in vivo
Rattus norvegicus [30] = experiment: Cardiotoxicity in Wistar rat assessed as effect on heart rate at 1 mg/kg, iv measured after 5 mins (reference value: 320.6 +/- 8.1 bpm); type: toxicity, organism-based; conditions: in vivo
Rattus norvegicus [31] = experiment: Cardiotoxicity in Wistar rat assessed as effect on QTC interval time at 1 mg/kg, iv measured after 5 mins (reference value: 137.7 +/- 2 ms); type: toxicity, organism-based; conditions: in vivo
Rattus norvegicus [32] = experiment: Cardiotoxicity in Wistar rat assessed as effect on PQ interval time at 1 mg/kg, iv measured after 15 mins (reference value: 56.8 +/- 1.8 ms); type: toxicity, organism-based; conditions: in vivo, 0.25 h
Rattus norvegicus [33] = experiment: Cardiotoxicity in Wistar rat assessed as effect on QT interval time at 1 mg/kg, iv measured after 15 mins (reference value: 59.2 +/- 0.5 ms); type: toxicity, organism-based; conditions: in vivo, 0.25 h

SMILES: COc1ccccc1CCNCC(O)COc1cccc2c(=O)c3ccccc3oc12.Cl (racemic)
- Activity [1]: inactive
- IC50 [2]: 426 nM
- Ki [2]: 359 nM
- pKb [3]: 8.28
- Kb [4]: 21.4 nM
- inhibition (Rattus norvegicus [5]): Active
- Activity (Rattus norvegicus [6]): 5 - 11%
- Activity (Rattus norvegicus [7]): 146.2 mmHg
- Activity (Rattus norvegicus [8]): 108.6 mmHg
- Activity (Rattus norvegicus [9]): 114.8 mmHg
- Activity (Rattus norvegicus [10]): 147.8 mmHg
- Activity (Rattus norvegicus [11]): 147 mmHg
- Activity (Rattus norvegicus [12]): 114.2 mmHg
- Activity (Rattus norvegicus [13]): 141 mmHg
- Activity (Rattus norvegicus [14]): 111.5 mmHg
- Activity (Rattus norvegicus [15]): 97.2 mmHg
- Activity (Rattus norvegicus [16]): 135 mmHg
- Activity (Rattus norvegicus [17]): 107.7 mmHg
- Activity (Rattus norvegicus [18]): 126.3 mmHg
- Activity (Rattus norvegicus [19]): 101.2 mmHg
- Time (Rattus norvegicus [20]): 52 ms
- Time (Rattus norvegicus [21]): 52.5 ms
- Time (Rattus norvegicus [22]): 51 ms
- Time (Rattus norvegicus [23]): 17 ms
- ED50 (Rattus norvegicus [24]): 2.2 mg/kg
- IC50 (Blood [25]): 33400 nM
- inhibition (Blood [25]): Dose-dependent effect
- IC50 (Blood [26]): 44800 nM
- inhibition (Blood [26]): Dose-dependent effect

SMILES: CC(C)(C)NCC(O)COc1cccc2c(=O)c3ccccc3oc12.Cl (racemic)
- Activity [27]: inactive
- Activity [1]: inactive
- Ki [2]: 5.4 nM
- Kb [4]: 0.31 nM
- Activity (Rattus norvegicus [9]): 111 mmHg
- Activity (Rattus norvegicus [10]): 146.4 mmHg
- Activity (Rattus norvegicus [11]): 142.6 mmHg
- Activity (Rattus norvegicus [12]): 109.5 mmHg
- Activity (Rattus norvegicus [13]): 131.6 mmHg
- Activity (Rattus norvegicus [14]): 103.7 mmHg
- Activity (Rattus norvegicus [16]): 128.2 mmHg
- Activity (Rattus norvegicus [17]): 100 mmHg
- Activity (Rattus norvegicus [18]): 123 mmHg
- Activity (Rattus norvegicus [19]): 96.7 mmHg
- Activity (Rattus norvegicus [28]): 307.2 bpm
- Time (Rattus norvegicus [29]): 19.6 ms
- Activity (Rattus norvegicus [30]): 295.6 bpm
- Time (Rattus norvegicus [31]): 132.2 ms
- Time (Rattus norvegicus [32]): 58 ms
- Time (Rattus norvegicus [33]): 59.6 ms
- ED50 (Rattus norvegicus [24]): 1.63 mg/kg
- IC50 (Blood [25]): 33000 nM
- inhibition (Blood [25]): Dose-dependent effect
- IC50 (Blood [26]): 82300 nM
- inhibition (Blood [26]): Dose-dependent effect

SMILES: COc1ccccc1CNCC(O)COc1cccc2c(=O)c3ccccc3oc12.Cl (racemic)
- Activity [1]: inactive
- IC50 [2]: 179 nM
- Ki [2]: 10.8 nM
- Kb [4]: 114 nM
- inhibition (Rattus norvegicus [5]): Active
- Activity (Rattus norvegicus [7]): 149.3 mmHg
- Activity (Rattus norvegicus [8]): 107.2 mmHg
- Activity (Rattus norvegicus [15]): 96 mmHg
- Time (Rattus norvegicus [20]): 60.7 ms
- Time (Rattus norvegicus [21]): 63.3 ms
- Time (Rattus norvegicus [22]): 57.7 ms
- Time (Rattus norvegicus [23]): 21.3 ms
- IC50 (Blood [25]): 86800 nM
- inhibition (Blood [25]): Dose-dependent effect

SMILES: COc1ccccc1OCCNCC(O)COc1cccc2c(=O)c3ccccc3oc12.Cl (racemic)
- Activity [1]: inactive
- IC50 [2]: 178 nM
- Ki [2]: 852 nM
- pKb [3]: 8.34
- Kb [4]: 18.1 nM
- inhibition (Rattus norvegicus [5]): Active
- Activity (Rattus norvegicus [6]): 6 - 13%
- Activity (Rattus norvegicus [7]): 121.6 mmHg
- Activity (Rattus norvegicus [8]): 89.7 mmHg
- Activity (Rattus norvegicus [9]): 85.4 mmHg
- Activity (Rattus norvegicus [10]): 119.6 mmHg
- Activity (Rattus norvegicus [11]): 114.8 mmHg
- Activity (Rattus norvegicus [12]): 82.8 mmHg
- Activity (Rattus norvegicus [13]): 114.8 mmHg
- Activity (Rattus norvegicus [14]): 84 mmHg
- Activity (Rattus norvegicus [15]): 77.2 mmHg
- Activity (Rattus norvegicus [16]): 112.4 mmHg
- Activity (Rattus norvegicus [17]): 81.6 mmHg
- Activity (Rattus norvegicus [18]): 106.8 mmHg
- Activity (Rattus norvegicus [19]): 75.6 mmHg
- Time (Rattus norvegicus [20]): 56 ms
- Time (Rattus norvegicus [21]): 58 ms
- Time (Rattus norvegicus [22]): 57.3 ms
- Time (Rattus norvegicus [23]): 18.7 ms
- IC50 (Blood [25]): 49500 nM
- inhibition (Blood [25]): Dose-dependent effect

SMILES: Cl.O=c1c2ccccc2oc2cc(OCC(O)CN3CCN(c4ccccn4)CC3)ccc12 (racemic)
- Activity [1]: inactive
- Ki [2]: 1570 nM
- pKb [3]: 8.2
- Activity (Rattus norvegicus [7]): 114.7 mmHg
- Activity (Rattus norvegicus [8]): 81 mmHg
- Activity (Rattus norvegicus [9]): 107.5 mmHg
- Activity (Rattus norvegicus [10]): 138.3 mmHg
- Activity (Rattus norvegicus [11]): 136 mmHg
- Activity (Rattus norvegicus [12]): 107 mmHg
- Activity (Rattus norvegicus [13]): 131 mmHg
- Activity (Rattus norvegicus [14]): 103.8 mmHg
- Activity (Rattus norvegicus [15]): 79.5 mmHg
- Activity (Rattus norvegicus [16]): 127.2 mmHg
- Activity (Rattus norvegicus [17]): 100.2 mmHg
- Activity (Rattus norvegicus [18]): 122.7 mmHg
- Activity (Rattus norvegicus [19]): 94.2 mmHg
- Time (Rattus norvegicus [20]): 55.3 ms
- Time (Rattus norvegicus [21]): 54.7 ms
- Time (Rattus norvegicus [22]): 56 ms
- Time (Rattus norvegicus [23]): 21.3 ms
- IC50 (Blood [25]): 77000 nM
- inhibition (Blood [25]): Dose-dependent effect
